# What was measured:
# [1] = system: umbrella sedge; assay: Test D paddy water application plant response rating 0 to 100; type: in vivo, Cyperus difformis; conditions: 0 to 100 scale, approx. 21 days
# Method in brief: (§1)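 Visual ratings versus controls are taken roughly 21 days after a paddy-water application of compound formulated in a non-phytotoxic solvent. Plants grow in saturated silt loam with water maintained 3 cm above the soil in a greenhouse.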
# [2] = system: wild mustard; assay: Test F preemergence/postemergence greenhouse plant response rating 0 to 100; type: in vivo, Sinapis arvensis; conditions: POSTEMERGENCE, 0 to 100 scale
# Text: (§2) Compounds evaluated in this test were formulated in a non-phytoxic solvent and applied to the soil surface before plant seedlings emerged (preemergence application) and to plants that were in the one-to-four leaf stage (postemergence application). A sandy loam soil was used for the preemergence test while a mixture of sandy loam soil and greenhouse potting mix in a 60:40 ratio was used for the postemergence test. Test compounds were applied within approximately one day after planting seeds for the preemergence test. Plantings of these crops and weed species were adjusted to produce plants of appropriate size for the postemergence test. All plant species were grown using normal greenhouse practices. Crop and weed species include winter barley (Hordeum vulgare cv. ‘Igri’), blackgrass (Alopecurus myosuroides), chickweed (Stellaria media), downy brome (Bromus tectorum), field violet (Viola arvensis), galium (Galium aparine), green foxtail (Setaria viridis), kochia (Kochia scoparia), lambsquarters (Chenopodium album), speedwell (Veronica persica), rape (Brassica napus), ryegrass (Lolium multiflorum), sugar beet (Beta vulgaris cv. ‘USl’), sunflower (Helianthus annuus cv. ‘Russian Giant’), spring wheat (Triticum aestivum cv. ‘ERA’), winter wheat (Triticum aestivum cv. ‘Talent’), wild buckwheat (Polygonum convolvulus), wild mustard (Sinapis arvensis), wild oat (Avena fatua), and wild radish (Raphanus raphanistrum). Blackgrass, galium and wild oat were treated at two growth stages. […] Treated plants and untreated controls were maintained in a greenhouse for approximately 21 to 28 days, after which all treated plants were compared to untreated controls and visually evaluated. […] A dash response (-) means no test result.
# [3] = system: Japonica rice; assay: Test E paddy water application plant response rating 0 to 100; type: in vivo, oryza sativa; conditions: Flood, 0 to 100 scale, approx. 21 days
# Method in brief: (§3)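 Compounds in a non-phytotoxic solvent were applied directly to paddy water kept 2 cm above silt loam soil in greenhouse pots.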
# [4] = system: wild radish; assay: Test F preemergence/postemergence greenhouse plant response rating 0 to 100; type: in vivo, Raphanus raphanistrum; conditions: POSTEMERGENCE, 0 to 100 scale
# Text: as §2
# [5] = system: sunflower; assay: as above; type: in vivo, Helianthus annuus cv. ‘Russian Giant’; conditions: POSTEMERGENCE, 0 to 100 scale
# Text: as §2
# [6] = system: barnyardgrass; assay: Test E paddy water application plant response rating 0 to 100; type: in vivo, Echinochloa crus-galli; conditions: Flood, 0 to 100 scale, approx. 21 days
# Method in brief: as §3
# [7] = system: arrowhead; assay: Test D paddy water application plant response rating 0 to 100; type: in vivo, Sagittaria spp.; conditions: 0 to 100 scale, approx. 21 days
# Method in brief: as §1
# [8] = system: barnyardgrass; assay: as above; type: in vivo, Echinochloa crus-galli; conditions: 0 to 100 scale, approx. 21 days
# Method in brief: as §1
# [9] = system: kochia; assay: Test F preemergence/postemergence greenhouse plant response rating 0 to 100; type: in vivo, Kochia scoparia; conditions: POSTEMERGENCE, 0 to 100 scale
# Text: as §2
# [10] = system: sugar beet; assay: as above; type: in vivo, Beta vulgaris cv. ‘USl’; conditions: POSTEMERGENCE, 0 to 100 scale
# Text: as §2
# [11] = system: Japonica rice; assay: Test D paddy water application plant response rating 0 to 100; type: in vivo, Oryza sativa; conditions: 0 to 100 scale, approx. 21 days
# Method in brief: as §1
# [12] = system: waterchestnut; assay: as above; type: in vivo, Eleocharis spp.; conditions: 0 to 100 scale, approx. 21 days
# Method in brief: as §1
# [13] = system: blackgrass; assay: Test F preemergence/postemergence greenhouse plant response rating 0 to 100; type: in vivo, Alopecurus myosuroides; conditions: POSTEMERGENCE, 0 to 100 scale; for Blackgrass (1) plant response rating: stage (1) two to three leaves; for Blackgrass (2) plant response rating: stage (2) approximately four leaves or initial tillering
# Text: as §2
# [14] = system: duck salad; assay: Test D paddy water application plant response rating 0 to 100; type: in vivo, Heteranthera limosa; conditions: 0 to 100 scale, approx. 21 days
# Method in brief: as §1
smiles,measurement,setting,value
C#CC(C)Oc1cc(-c2nn3c(c2Cl)CCCC3)c(F)cc1Cl (stereo not drawn) [Compound 36],Umbrella sedge plant response rating,[1]; Rate 4 g/ha,0
same,Umbrella sedge plant response rating,[1]; Rate 8 g/ha,0
same,Umbrella sedge plant response rating,[1]; Rate 16 g/ha,60
same,Umbrella sedge plant response rating,[1]; Rate 32 g/ha,70
same,Umbrella sedge plant response rating,[1]; Rate 64 g/ha,80
same,Wild mustard plant response rating,[2]; Rate 4 g/ha,100
same,Wild mustard plant response rating,[2]; Rate 8 g/ha,100
same,Wild mustard plant response rating,[2]; Rate 16 g/ha,100
same,Wild mustard plant response rating,[2]; Rate 32 g/ha,100
same,Japonica 1 plant response rating,[3]; Rate 8 g/ha,15
same,Japonica 2 plant response rating,[3]; Rate 8 g/ha,10
same,Japonica 1 plant response rating,[3]; Rate 16 g/ha,20
same,Japonica 2 plant response rating,[3]; Rate 16 g/ha,0
same,Japonica 1 plant response rating,[3]; Rate 32 g/ha,20
same,Japonica 2 plant response rating,[3]; Rate 32 g/ha,15
same,Japonica 1 plant response rating,[3]; Rate 64 g/ha,25
same,Japonica 2 plant response rating,[3]; Rate 64 g/ha,15
same,Japonica 1 plant response rating,[3]; Rate 125 g/ha,25
same,Japonica 2 plant response rating,[3]; Rate 125 g/ha,20
same,Wild radish plant response rating,[4]; Rate 4 g/ha,100
same,Wild radish plant response rating,[4]; Rate 8 g/ha,100
same,Wild radish plant response rating,[4]; Rate 16 g/ha,100
same,Wild radish plant response rating,[4]; Rate 32 g/ha,100
same,Sunflower plant response rating,[5]; Rate 4 g/ha,0
same,Sunflower plant response rating,[5]; Rate 8 g/ha,40
same,Sunflower plant response rating,[5]; Rate 16 g/ha,50
same,Sunflower plant response rating,[5]; Rate 32 g/ha,60
same,Barnyardgrass 2 plant response rating,[6]; Rate 8 g/ha,30
same,Barnyardgrass 3 plant response rating,[6]; Rate 8 g/ha,30
same,Barnyardgrass 2 plant response rating,[6]; Rate 16 g/ha,40
same,Barnyardgrass 3 plant response rating,[6]; Rate 16 g/ha,35
same,Barnyardgrass 2 plant response rating,[6]; Rate 32 g/ha,55
same,Barnyardgrass 3 plant response rating,[6]; Rate 32 g/ha,40
same,Barnyardgrass 2 plant response rating,[6]; Rate 64 g/ha,65
same,Barnyardgrass 3 plant response rating,[6]; Rate 64 g/ha,50
same,Barnyardgrass 2 plant response rating,[6]; Rate 125 g/ha,100
same,Barnyardgrass 3 plant response rating,[6]; Rate 125 g/ha,75
same,Arrowhead plant response rating,[7]; Rate 4 g/ha,0
same,Arrowhead plant response rating,[7]; Rate 8 g/ha,0
same,Arrowhead plant response rating,[7]; Rate 16 g/ha,0
same,Arrowhead plant response rating,[7]; Rate 32 g/ha,0
same,Arrowhead plant response rating,[7]; Rate 64 g/ha,0
same,Barnyardgrass 2 plant response rating,[8]; Rate 4 g/ha,30
same,Barnyardgrass 2 plant response rating,[8]; Rate 8 g/ha,65
same,Barnyardgrass 2 plant response rating,[8]; Rate 16 g/ha,80
same,Barnyardgrass 2 plant response rating,[8]; Rate 32 g/ha,100
same,Barnyardgrass 2 plant response rating,[8]; Rate 64 g/ha,100
same,Kochia plant response rating,[9]; Rate 4 g/ha,20
same,Kochia plant response rating,[9]; Rate 8 g/ha,60
same,Kochia plant response rating,[9]; Rate 16 g/ha,60
same,Kochia plant response rating,[9]; Rate 32 g/ha,100
same,Sugar beet plant response rating,[10]; Rate 4 g/ha,100
same,Sugar beet plant response rating,[10]; Rate 8 g/ha,100
same,Sugar beet plant response rating,[10]; Rate 16 g/ha,100
same,Sugar beet plant response rating,[10]; Rate 32 g/ha,100
same,Japonica rice plant response rating,[11]; Rate 4 g/ha,10
same,Japonica rice plant response rating,[11]; Rate 8 g/ha,10
same,Japonica rice plant response rating,[11]; Rate 16 g/ha,15
same,Japonica rice plant response rating,[11]; Rate 32 g/ha,20
same,Japonica rice plant response rating,[11]; Rate 64 g/ha,25
same,Waterchestnut plant response rating,[12]; Rate 4 g/ha,10
same,Waterchestnut plant response rating,[12]; Rate 8 g/ha,10
same,Waterchestnut plant response rating,[12]; Rate 16 g/ha,20
same,Waterchestnut plant response rating,[12]; Rate 32 g/ha,20
same,Waterchestnut plant response rating,[12]; Rate 64 g/ha,20
same,Blackgrass (1) plant response rating,[13]; Rate 4 g/ha,0
same,Blackgrass (2) plant response rating,[13]; Rate 4 g/ha,0
same,Blackgrass (1) plant response rating,[13]; Rate 8 g/ha,0
same,Blackgrass (2) plant response rating,[13]; Rate 8 g/ha,0
same,Blackgrass (1) plant response rating,[13]; Rate 16 g/ha,0
same,Blackgrass (2) plant response rating,[13]; Rate 16 g/ha,10
same,Blackgrass (1) plant response rating,[13]; Rate 32 g/ha,5
same,Blackgrass (2) plant response rating,[13]; Rate 32 g/ha,20
same,Duck salad plant response rating,[14]; Rate 4 g/ha,0
same,Duck salad plant response rating,[14]; Rate 8 g/ha,0
same,Duck salad plant response rating,[14]; Rate 16 g/ha,20
same,Duck salad plant response rating,[14]; Rate 32 g/ha,30
same,Duck salad plant response rating,[14]; Rate 64 g/ha,60

# Source: US6358885B1, “Substituted phenylheterocyclic herbicides” (Mississippi State University, priority 1992, dated 2002)
